Earlier results, collected in patent US20230138262A1, “FAST-DISINTEGRATING SOLID HERBICIDE COMPOSITION AND THE USE THEREOF” (Rotam Agrochem International Company Limited, priority 2021, published 2023).

Columns and labels:
corn = details: in vivo

In the case of `Cc1c(C(=O)c2cnn(C)c2O)ccc(S(C)(=O)=O)c1C1=NOCC1` [Topramezone], the “Time to appearance of albino toxication symptoms in overground part of weeds after application” value (sensitive weeds; after application) is listed as 2 to 5 days, the “Time from application to death of weeds” value (sensitive weeds; depending on weather and environment) is listed as 10 to 15 days and the Safety to corn (corn) is listed as “safe to corn”.
